In patent US8232278B2 (Gilead Sciences, Inc., priority 2005, dated 2012):
Where two headings read alike, the source gives them in different places.

Tests used:
HCV replicon = test: Anti-HCV assay / replicon assay (EC50, luciferase read-out); assay type: cell-based, hepatitis C virus (HCV); conditions: for CC50/EC50: CC50/EC50 ratio (selectivity index)
Experimental: (§1) The anti-HCV activity of the pyrido[3,2-d]pyrimidine derivatives of this invention was tested in a human hepatoma Huh-7 cell line harbouring a HCV replicon. The assay comprised the following steps:
(§2) Step 1: Compound Preparation and Serial Dilution
(§3) • 1. for water soluble pyrido[3,2-d]pyrimidine derivatives, a volume of 500 μL of solution in cell media (DMEM, 10% FBS, P/S, L-Glutamine) was prepared with a concentration being twice the concentration of the starting final serial dilution concentration. […] The rest of the plate, columns 2-12, was filled with 100 μL of cell media. The plate was then placed on a Precision 2000 Workstation to start the serial dilution. Compounds were diluted three times each step from column 1 to column 10. Column 11 was used as a blank control (no compound added). • 2. for pyrido[3,2-d]pyrimidine derivatives requiring DMSO to dissolve, serial dilution is performed in 50% DMSO in a 384-well plate. A solution containing a compound at 100-fold concentration of the starting final serial dilution concentration was prepared in 50% DMSO and added to the pre-specified wells in column 1 of a polypropylene 384-well plate. The plate was then placed on a Precision 2000 Workstation to start the serial dilution. After the serial dilution, a volume of 2 μL of the solution was transferred from the 384-well plate to a 96-well cell culture plate containing 100 μL of cell media on a Biomek FX Workstation. The DMSO concentration in the final assay condition was 0.5% after cells are added to the plate and the total volume in each well is brought to 200 μL. Step 2: to each well of the serial dilution plate prepared above, 100 μL of cell media containing 6000 suspended Huh-7 HCV replicon cells was added with a Multidrop workstation. The plates were incubated for 3 days at 37° C. with 5% CO2. Step 3: Detection: • a) for the EC50 assay, the media in a 96-well cell culture plate was aspirated with a Biotek EL405 plate-washer. A volume of 200 μL of a solution containing a 1:1 mixture of cell-lysis buffer (Promega, Luciferase Cell Culture Lysis 5× Reagent, cat. #E1531) and luciferase substrate solution (Promega, Luciferase Assay, cat. #E4550) was added to each well of the plate with Multidrop.
(§4) Results in table 7 are expressed by the following data: • the 50% effective concentration (EC50), i.e. the concentration that protects 50% of the cell monolayer from virus-induced cythopathic effect, and • the 50% cytostatic concentration (CC50), i.e. the concentration that results in 50% inhibition of cell growth. Table 7 further indicates the nature of substituents being present in positions 2, 4 and 6 of the pyrido[3,2-d]pyrimidine derivatives of the invention.

Huh-7 HCV replicon cells = test: CC50 assay in Huh-7 HCV replicon cells (CellTiter-Glo); assay type: cell-based, human; conditions: 3 days, 50% cytostatic concentration
Experimental: as §1, §2, §3, §4

[1] = human hepatoma Huh-7 cell line harbouring a HCV replicon, 3 days, luciferase luminescence, read-out: EC50
[2] = Hepatitis C virus, 72 h, human hepatoma Huh-7 cell line harbouring a HCV replicon, 3 days, luciferase luminescence, read-out: EC50

Cc1ccc(-c2ccc3ncnc(N4CCN(C(=O)Nc5cccc(Cl)c5)CC4)c3n2)cc1C [Example 84]
CC50/EC50 (HCV replicon): 167 | EC50 (HCV replicon; [1]): 130 nM | CC50 (Huh-7 HCV replicon cells): 21800 nM

CCOc1nc(NC(C)=O)nc2ccc(-c3ccc(F)cc3)nc12 [NHCOMe/OEt/(4-F)Ph]
CC50/EC50 (HCV replicon): 170 | EC50 (HCV replicon; [1]): 148 nM | CC50 (Huh-7 HCV replicon cells): 25100 nM

COc1ccc(-c2ccc3nc(N)nc(N4CCN(Cc5ccccc5)CC4)c3n2)cc1OC [Example 57, 2-amino-4-(1-benzylpiperazin-1-yl)-6-(3,4-dimethoxyphenyl)-pyrido[3,2-d]pyrimidine]
CC50/EC50 (HCV replicon): 546 | EC50 (HCV replicon; [1]): 45 nM | CC50 (Huh-7 HCV replicon cells): 24600 nM

2-amino-4-[(N-3-chloro-phenyl-carbamoyl)-piperazin-1-yl]-6-(3-fluoro-4-ethoxyphenyl)pyrido-[3,2-d]pyrimidine [Example 171]
CC50/EC50 (HCV replicon): 101 | EC50 (HCV replicon; [1]): 15 nM | CC50 (Huh-7 HCV replicon cells): 1500 nM

Nc1nc(N2CCS(=O)(=O)CC2)c2nc(-c3ccc(F)cc3)ccc2n1 [Example 406, 2-amino-4-(thiomorpholino-1,1-dioxide)-6-(4-fluorophenyl)pyrido[3,2-d]pyrimidine]
CC50/EC50 (HCV replicon): 1931 | EC50 (HCV replicon; [1]): 13 nM | CC50 (Huh-7 HCV replicon cells): 25100 nM

COc1ccc(-c2ccc3nc(N)nc(N4CCN(C(=O)COc5ccccc5)CC4)c3n2)cc1OC [Example 65, 2-amino-4[(N-phenoxy-acetyl)-piperazin-1-yl]-6-(3,4-dimethoxyphenyl)-pyrido[3,2-d]pyrimidine]
CC50/EC50 (HCV replicon): 90 | EC50 (HCV replicon; [1]): 280 nM | CC50 (Huh-7 HCV replicon cells): 25100 nM

Nc1nc(N2CCN(C(=O)COc3ccc(Cl)cc3)CC2)c2nc(-c3ccc(C(F)(F)F)cc3)ccc2n1 [Example 379, 2-amino-4-[N-(4-chlorophenoxyacetyl)piperazin-1-yl]-6-(4-trifluoromethylphenyl)-pyrido-[3,2-d]pyrimidine]
CC50/EC50 (HCV replicon): 287 | EC50 (HCV replicon; [1]): 75 nM | CC50 (Huh-7 HCV replicon cells): 21600 nM

N#Cc1ccc(-c2ccc3nc(N)nc(N4CCN(C(=O)COc5ccc(Cl)cc5)CC4)c3n2)cc1 [Example 378, 2-amino-4-[N-(4-chlorophenoxyacetyl)piperazin-1-yl]-6-(4-cyanophenyl)pyrido-[3,2-d]pyrimidine]
CC50/EC50 (HCV replicon): 571 | EC50 (HCV replicon; [1]): 8 nM | CC50 (Huh-7 HCV replicon cells): 4300 nM

CCOc1ccc(-c2ccc3ncnc(N4CCN(C(=O)Nc5cccc(Cl)c5)CC4)c3n2)cc1Cl [Example 86]
CC50/EC50 (HCV replicon): 100 | EC50 (HCV replicon; [1]): 250 nM | CC50 (Huh-7 HCV replicon cells): 25100 nM

COc1ccc(-c2ccc3nc(N)nc(Nc4cccc(C)c4)c3n2)cc1OC [Example 32, 2-amino-4-(3-methyl-anilino)-6-(3,4-dimethoxyphenyl)-pyrido[3,2-d]pyrimidine]
CC50/EC50 (HCV replicon): 195 | EC50 (HCV replicon; [2]): 258 nM | CC50 (Huh-7 HCV replicon cells): 50100 nM

Cc1cccc(NC(=O)N2CCN(c3nc(N)nc4ccc(-c5ccc(Cl)c(Cl)c5)nc34)CC2)c1 [Example 191, 2-amino-4-[N-(3-methyl-phenyl-carbamoyl)-piperazin-1-yl]-6-(3,4-dichlorophenyl)-pyrido[3,2-d]pyrimidine]
CC50/EC50 (HCV replicon): 132 | EC50 (HCV replicon; [1]): 9 nM | CC50 (Huh-7 HCV replicon cells): 1200 nM

Nc1nc(N2CCN(C(=O)COc3ccc(Cl)cc3)CC2)c2nc(-c3ccc(F)c(Cl)c3)ccc2n1 [Example 387, 2-amino-4-[N-(4-chlorophenoxyacetyl)piperazin-1-yl]-6-(3-chloro-4-fluorophenyl)-pyrido-[3,2-d]pyrimidine]
CC50/EC50 (HCV replicon): 280 | EC50 (HCV replicon; [1]): 21 nM | CC50 (Huh-7 HCV replicon cells): 5900 nM

CCOc1nc(N)nc2ccc(-c3ccc(Cl)cc3)nc12 [Example 463, 6-(4-chloro-phenyl)-4-ethoxy-pyrido[3,2-d]pyrimidin-2-ylamine]
CC50/EC50 (HCV replicon): 98 | EC50 (HCV replicon; Hepatitis C virus, Huh-7, 72 h): 511 nM | CC50 (Huh-7 HCV replicon cells): 50100 nM

O=C(Nc1cccc(Cl)c1)N1CCN(c2ncnc3ccc(-c4ccc5c(c4)OCO5)nc23)CC1 [Example 85, 4-[(N-3-chlorophenylcarbamoyl)-piperazin-1-yl]-6-(3,4-methylenedioxy)phenyl-pyrido[3,2-d]pyrimidine]
CC50/EC50 (HCV replicon): 64 | EC50 (HCV replicon; [1]): 19 nM | CC50 (Huh-7 HCV replicon cells): 1200 nM

Nc1nc(N2CCOCC2)c2nc(-c3ccc4c(c3)OCO4)ccc2n1 [Example 180, 2-amino-4-morpholino-6-(3,4-(methylenedioxy)phenyl)pyrido[3,2-d]pyrimidine]
CC50/EC50 (HCV replicon): 167 | EC50 (HCV replicon; [1]): 150 nM | CC50 (Huh-7 HCV replicon cells): 25100 nM

CCCCCOc1nc(N)nc2ccc(-c3ccccc3F)nc12 [Example 297, 2-amino-4-n-pentyloxy-6-(o-fluorophenyl)pyrido[3,2-d]-pyrimidine]
CC50/EC50 (HCV replicon): 66 | EC50 (HCV replicon; [2]): 760 nM | CC50 (Huh-7 HCV replicon cells): 50100 nM

COc1ccc(-c2ccc3nc(N)nc(NCCN4CCOCC4)c3n2)cc1OC [Example 38, 2-amino-4-[4-(2-aminoethyl)morpholino]-6-(3,4-dimethoxyphenyl)-pyrido[3,2-d]pyrimidine]
CC50/EC50 (HCV replicon): 151 | EC50 (HCV replicon; [1]): 47 nM | CC50 (Huh-7 HCV replicon cells): 7100 nM

CCOc1nc(N)nc2ccc(-c3cccs3)nc12 [Example 467, 4-Ethoxy-6-thiophen-2-yl-pyrido[3,2-d]pyrimidin-2-ylamine]
CC50/EC50 (HCV replicon): 113 | EC50 (HCV replicon; [2]): 443 nM | CC50 (Huh-7 HCV replicon cells): 50100 nM

CCSc1nc(N)nc2ccc(-c3ccc(F)cc3)nc12 [Example 393, 2-amino-4-thioethyl-6-(4-fluorophenyl)pyrido(3,2-d)pyrimidine]
CC50/EC50 (HCV replicon): 154 | EC50 (HCV replicon; [1]): 234 nM | CC50 (Huh-7 HCV replicon cells): 36000 nM

COc1ccc(-c2ccc3nc(N)nc(Nc4ccc5c(c4)OCO5)c3n2)cc1OC [Example 33, 2-amino-4-[3,4-(methylenedioxy)aniline]-6-(3,4-dimethoxyphenyl)pyrido[3,2-d]pyrimidine]
CC50/EC50 (HCV replicon): 636 | EC50 (HCV replicon; [1]): 8 nM | CC50 (Huh-7 HCV replicon cells): 4800 nM

COc1ccc(-c2ccc3nc(OCCOc4ccccc4)nc(N4CCN(C(=O)Nc5cccc(C)c5)CC4)c3n2)cc1OC [Example 19]
CC50/EC50 (HCV replicon): 52 | EC50 (HCV replicon; [1]): 480 nM | CC50 (Huh-7 HCV replicon cells): 25100 nM

Nc1nc(N2CCN(C(=O)COc3ccc(Cl)cc3)CC2)c2nc(-c3ccc(F)cc3)ccc2n1 [Example 201, 2-amino-4-[(N-4-chloro-phenoxy-acetyl)-piperazin-1-yl]-6-(4-fluorophenyl)-pyrido[3,2-d]pyrimidine]
CC50/EC50 (HCV replicon): 558 | EC50 (HCV replicon; [1]): 45 nM | CC50 (Huh-7 HCV replicon cells): 25100 nM

CS(=O)(=O)CCNc1nc(N)nc2ccc(-c3ccc(F)cc3)nc12 [Example 415, 2-amino-4-[(2-aminoethyl)methylsulfone]-6-(4-fluorophenyl)pyrido[3,2-d]pyrimidine]
CC50/EC50 (HCV replicon): 118 | EC50 (HCV replicon; [1]): 99 nM | CC50 (Huh-7 HCV replicon cells): 11700 nM

COc1cc(-c2ccc3ncnc(N4CCN(C(=O)Nc5cccc(Cl)c5)CC4)c3n2)ccc1OC(C)C [Example 124]
CC50/EC50 (HCV replicon): 71 | EC50 (HCV replicon; [1]): 35 nM | CC50 (Huh-7 HCV replicon cells): 2500 nM

4-ethoxy-6-(4-methoxy-phenyl)-pyrido[3,2-d]pyrimidin-2-ylamine [Example 461]
CC50/EC50 (HCV replicon): 93 | EC50 (HCV replicon; [1]): 270 nM | CC50 (Huh-7 HCV replicon cells): 25100 nM

COc1ccc(-c2ccc3nc(C)nc(N4CCN(C(=O)Nc5cccc(C)c5)CC4)c3n2)cc1OC [Example 11]
CC50/EC50 (HCV replicon): 98 | EC50 (HCV replicon; [1]): 75 nM | CC50 (Huh-7 HCV replicon cells): 7300 nM
